Non-standard residues stand in square brackets, D forms with d. Residues, ends and D or L forms follow the SMILES beside them. No end group written: not given here. *: point of attachment. FITC = O=C1OC2(c3ccc(O)cc3Oc3cc(O)ccc32)c2ccc(NC(=S)*)cc21
Tests used:
[1] = test system: MUC1-C-expressing carcinoma and leukemia cells; set-up: method as in PMID 21421804, PMID 23867470; conditions: ref [19],[32]; cited from earlier work
[2] = test system: rat GFP-MUC1-CD and FLAG-MUC1-CD; test: MUC1-CD homodimerization in 293T cells, rat, coimmunoprecipitation; format: cell-based; conditions: 5 μM each day for 3 days, anti-FLAG precipitation
Experimental: (§1) Human ZR-75-1 breast cancer (ATTC) and H1975 lung cancer (ATTC) cell lines were grown in RPMI 1640 supplemented with 10% heat-inactivated fetal bovine serum (HI-FBS), 100 units/ml penicillin, and 100 μg/ml streptomycin. 293T cells were grown in DMEM with 10% HI-FBS, antibiotics, and 2 mmol/L L-glutamine. Cells were treated with FITC conjugated-GO-202 (FITC-GO-202), FITC-GO-203 or unconjugated GO-203 synthesized by the MIT Biopolymer Laboratory (Cambridge, MA) and AnaSpec, Inc (San Jose, CA). The p3XFLAG-CMV-10 (Sigma, St. Louis, MO), pEGFP-C1 and pDsRed-Monomer-N1 (Clontech, Mountain View, CA) vectors were used for transfection of rat and dog MUC1-CD and full length human MUC1 in 293T cells in the presence of Lipofectamine 2000 (Life Technologies, Grand Island, NY).
(§2) Cell lysates were prepared as described. Soluble proteins were immunoprecipitated with anti-FLAG (Sigma, St. Louis, MO), anti-MUC1-C (Thermo Fisher Scientific, Waltham, MA) or a control IgG. The precipitates and lysates not subjected to immunoprecipitation were immunoblotted with anti-MUC1-C, anti-GFP (Abcam, Cambridge, MA), anti-FLAG and anti-FITC (Life Technologies, Grand Island, NY). Reactivity was detected with horseradish peroxidase-conjugated secondary antibodies and chemiluminescence.

human His-MUC1-CD = test: In vitro dimerization of human His-MUC1-CD; format: biochemical; conditions: CP-2 or GO-203 150 μM; 1 h at room temperature; non-reducing gel, anti-MUC1-C immunoblot
Experimental: (§3) Vectors expressing GST-MUC1-CD, GST-MUC1-CD(AQA) and His-MUC1-CD, GFP-MUC1-CD and FLAG-MUC1-CD have been described. His-tagged MUC1-CD (rat and dog) were cloned in pET28a vector (Clontech, Mountain View, CA) and expressed in E. coli BL21(DE3).
(§4) Purified His-MUC1-CD was incubated in PBS or increasing amounts of GO-203 for 1 h at room temperature as described. Proteins were then separated in non-reducing polyacrylamide gels and analyzed by immunoblotting.

[3] = test system: human GFP-MUC1-CD and FLAG-MUC1-CD; test: MUC1-CD homodimerization in 293T cells, human, coimmunoprecipitation; format: cell-based; conditions: 5 μM each day for 3 days, anti-FLAG precipitation
Experimental: as §1, §2

[4] = test system: dog GFP-MUC1-CD and FLAG-MUC1-CD; test: MUC1-CD homodimerization in 293T cells, dog, coimmunoprecipitation; format: cell-based; conditions: 5 μM each day for 3 days, anti-FLAG precipitation
Experimental: as §1, §2

[5] = biological target: His-MUC1-CD (human) (human); test: non-reducing PAGE with immunoblot; purified His-MUC1-CD in PBS (pH 7.4) or with GO-203 (50, 150, 450 μM) for 1 h at room temperature; immunoblot with anti-MUC1-C
His-MUC1-CD (rat) (rat) = test: as above
GST-MUC1-CD = biological target: T1, GST-MUC1-CD (Homo sapiens, UniProt P15941); test: MS-bridge analysis of disulfide linkage, MALDI-TOF-MS; format: binding; conditions: incubation with purified GST-MUC1-CD, tryptic digest, single disulfide bridge at the CQC motif
T1 construct: made in house
T1 sequence (P15941 1182-1255 limits assumed): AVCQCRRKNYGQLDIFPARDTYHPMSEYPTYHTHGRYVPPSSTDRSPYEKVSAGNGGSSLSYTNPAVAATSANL
Experimental: (§5) Binding experiments with MUC1-CD and GO-203 were performed as described. Complexes were eluted from the glutathione beads, dialyzed and concentrated using amicon ultra centrifugal filters (Millipore, Billerica, MA). The complexes were then subjected to non-reducing electrophoresis and stained with Coomassie Blue. Protein bands were excised and analyzed by MALDI-TOF-MS as described. Briefly, gels were cut into small, uniform pieces; the gel pieces were dehydrated with acetonitrile and then rehydrated in 100 mM ammonium bicarbonate followed by 2 washing and drying cycles with ammonium bicarbonate and acetonitrile, respectively. After complete dehydration, gel pieces were suspended in 12.5 ng/μl trypsin in 50 mM ammonium bicarbonate (50 μl). In-gel digestion was carried out at 37°C for 10–12 h and the samples were acidified with 50 μl of 0.5% TFA. Thirty μl of this mixture was desalted by C-18 containing Zip-Tip (Millipore, Billerica, MA). Trypsin-digested peptides were analyzed by MALDI-TOF-MS (ABI-4800). MALDI-TOF-MS analyses were performed using a Reflector method that was optimized for acquisition for the mass range of 700–3500 amu. Data was collected and analyzed using the data Explorer software package (AB-Sciex, Framingham, MA) and MASCOT (ver.2.0.04, Matrix Science, Boston, MA). MS-bridge analysis was done using Protein Prospector (ver.4.27.2 basic and ver.5.0, UCSF). […]

GST = test: MS-bridge analysis of disulfide linkage, MALDI-TOF-MS, GST control; format: binding; conditions: tryptic digest of GST+GO-203, dimer peak not observed
Experimental: as §5

dog His-MUC1-CD = test: In vitro dimerization of dog His-MUC1-CD; format: biochemical; conditions: GO-203 50, 150 and 450 μM; 1 h at room temperature; non-reducing gel, anti-MUC1-C immunoblot
Experimental: as §3, §4

rat His-MUC1-CD = test: In vitro dimerization of rat His-MUC1-CD; format: biochemical; conditions: GO-203 50, 150 and 450 μM; 1 h at room temperature; pH 7.4; non-reducing gel, anti-MUC1-C immunoblot
Experimental: as §3, §4

DsRedMN1-MUC1 = test: Localization in 293T cells expressing DsRedMN1-MUC1, immunofluorescence microscopy; format: cell-based, human; conditions: 5 μM FITC-GO-203, 3 h
Experimental: as §1
(§6) 293T cells were transfected with MUC1-pDsRed-Monomer-N1 in the presence of Lipofectamine 2000 for 48 h. The cells were then incubated with FITC-GO-203 for 3 h and examined using a Nikon-deconvolution wide-field epifluorescence system with a 100x oil immersion objective. Images were captured using NIS-element software (Nikon) and analyzed by ImageJ software.

endogenous MUC1-C [6] = test: Binding to endogenous MUC1-C in ZR-75-1 cells, coimmunoprecipitation; format: cell-based, human; conditions: 5 μM FITC-GO-203 overnight, non-reducing
Experimental: as §1, §2

293T cells = test: Localization in untransfected 293T cells, immunofluorescence microscopy; format: cell-based; conditions: FITC-GO-203 alone, 5 μM, 3 h
Experimental: as §1, §6

GST-MUC1-CD(AQA) = test: Binding to GST-MUC1-CD(AQA) mutant; conditions: CQC motif mutated to AQA; only background fluorescence; data not shown; FITC-labeled peptide, 1 h at 37°C
Experimental: Binding affinities of FITC-GO-202 and FITC-GO-203 were determined by the saturation binding method. In short, 96-well glutathione- or nickel-coated plates (Thermo Fisher, Waltham, MA) were incubated with 150 μl of PBS buffer containing 21.45 μg/ml of GST-MUC1-CD, GST-MUC1-CD(AQA) or His-MUC1-CD overnight at 4°C followed by washing with 50 mM Tris and 150 mM NaCl containing 0.1% Tween-20 (TBST), and blocking with 0.5% BSA in TBS. The plates were then washed 3 times with TBST. FITC-GO-202 or FITC-GO-203 was added to the wells at 0.19 μM to 25 μM. Nonspecific binding was determined in the presence of GST alone. Plates were incubated for 1 h at 37°C on a shaker followed by washing 3 times with binding buffer. Fluorescence intensity was determined on an Infinite M1000 PRO Tecan Microplate Reader (Tecan, NC) with excitation at 490 nm and emission at 525 nm. GraphPad Prism 4.0 Software (San Diego, CA) was used to calculate the equilibrium dissociation constant (Kd) by a non-linear regression method.
as §3

endogenous MUC1-C [7] = test: Binding to endogenous MUC1-C in H1975 cells, coimmunoprecipitation; format: cell-based, human; conditions: 5 μM FITC-GO-203 overnight, non-reducing
Experimental: as §1, §2

His-MUC1-CD (dog) (dog) = test: non-reducing PAGE with immunoblot; purified His-MUC1-CD in PBS (pH 7.4) or with GO-203 (50, 150, 450 μM) for 1 h at room temperature; immunoblot with anti-MUC1-C
GST-MUC1-CD (human) = test: saturation binding of FITC-peptide to protein on coated plates (fluorescence); GST-MUC1-CD held on glutathione-coated 96-well plates; FITC-peptide 0.19 μM to 25 μM, 1 h at 37°C; nonspecific binding from GST alone; apparent Kd by non-linear regression
[8] = biological target: His-MUC1-CD (human) (human); test: saturation binding of FITC-peptide to protein on coated plates (fluorescence); His-MUC1-CD held on nickel-coated 96-well plates; FITC-GO-203 0.19 μM to 25 μM, 1 h at 37°C; apparent Kd by non-linear regression

Q: With “AQARRKN [CP-2, control peptide, which includes AQARRKN, reference compound]” as the molecule, how does the “inhibition of survival of MUC1-C-expressing carcinoma and leukemia cells” value [1] read?
A: not CP-2, inhibits the survival of MUC1-C-expressing carcinoma and leukemia cells

Q: What about the “inhibition of rat FLAG-MUC1-CD/GFP-MUC1-CD complexes in cells” value [2] of the same molecule?
A: no apparent effect

Q: What about the “inhibition of human His-MUC1-CD homodimerization” value (human His-MUC1-CD) of the same molecule?
A: no effect

Q: What about the “inhibition of human MUC1-CD homodimerization in cells” value [3] of the same molecule?
A: no effect

Q: And the “inhibition of dog MUC1-CD homodimerization in cells” value [4]?
A: no effect

Q: For “His-MUC1-CD (human) (domain or fragment)”, which stoichiometry N [5] is on record?
A: 2

Q: Which stoichiometry N (His-MUC1-CD (rat) (rat)) does the source give for His-MUC1-CD (rat) (domain or fragment) here?
A: 2

Q: Which results are given for “[R]9-CQCRRKN [GO-203, peptide in which the poly-Arg cell-penetrating domain is linked to CQCRRKN (D-amino acids)]”?
A: formation of disulfide bridges with MUC1-CD (GST-MUC1-CD): forms disulfide bridges specifically with MUC1-CD; inhibition of survival of MUC1-C-expressing carcinoma and leukemia cells [1]: inhibits the survival of MUC1-C-expressing carcinoma and leukemia cells; inhibition of rat FLAG-MUC1-CD/GFP-MUC1-CD complexes in cells [2]: inhibition of the FLAG-MUC1-CD/GFP-MUC1-CD complexes; inhibition of human His-MUC1-CD homodimerization (human His-MUC1-CD): effectively inhibited; formation of disulfide bridges with GST (GST): not with GST; inhibition of human MUC1-CD homodimerization in cells [3]: inhibition of MUC1-CD homodimerization; inhibition of dog His-MUC1-CD homodimerization (dog His-MUC1-CD): effectively inhibited; inhibition of dog MUC1-CD homodimerization in cells [4]: inhibition of MUC1-CD homodimerization; inhibition of rat His-MUC1-CD homodimerization (rat His-MUC1-CD): decreased homodimerization

Q: Which “co-localization of DsRed (MUC1) and FITC signals” value (DsRedMN1-MUC1; 293T cells expressing DsRedMN1-MUC1) does the source give for `N=C(N)NCCC[C@@H](NC(=O)[C@@H](CCCNC(=N)N)NC(=O)[C@@H](CS)NC(=O)[C@@H](CCC(N)=O)NC(=O)[C@@H](CS)NC(=O)[C@@H](CCCNC(=N)N)NC(=O)[C@@H](CCCNC(=N)N)NC(=O)[C@@H](CCCNC(=N)N)NC(=O)[C@@H](CCCNC(=N)N)NC(=O)[C@@H](CCCNC(=N)N)NC(=O)[C@@H](CCCNC(=N)N)NC(=O)[C@@H](CCCNC(=N)N)NC(=O)[C@@H](CCCNC(=N)N)NC(=O)[C@@H](CCCNC(=N)N)NC(=S)Nc1ccc2c(c1)C(=O)OC21c2ccc(O)cc2Oc2cc(O)ccc21)C(=O)N[C@H](CCCCN)C(=O)N[C@H](CC(N)=O)C(=O)O` [FITC-GO-203] ({FITC}-[dR][dR][dR][dR][dR][dR][dR][dR][dR][dC][dQ][dC][dR][dR][dK][dN]-OH; N-terminus and C-terminus assumed) here?
A: co-localization of the DSRed and FITC signals (Red+Green→Yellow) was observed along the membrane

Q: And the “FITC staining in cells expressing MUC1 compared to the MUC1-null setting” value (DsRedMN1-MUC1; 293T cells)?
A: brighter

Q: What about the “complex formation with endogenous MUC1-C” value (endogenous MUC1-C [6]; ZR-75-1 breast cancer cells, anti-MUC1-C precipitates, anti-FITC immunoblot) of the same molecule?
A: forms complexes with MUC1-C

Q: And the “interaction with MUC1-C monomeric and oligomeric forms” value (endogenous MUC1-C [6]; ZR-75-1 cells, entire immunoblots)?
A: interacts with the different MUC1-C monomeric and oligomeric forms

Q: What about the “localization of FITC signals” value (293T cells) of the same molecule?
A: localized along the membrane and in the cytosol

Q: And the “interaction with GST-MUC1-CD(AQA)” value (GST-MUC1-CD(AQA))?
A: no interaction was evident

Q: What about the “interaction with MUC1-C monomeric and oligomeric forms” value (endogenous MUC1-C [7]; H1975 cells, entire immunoblots) of the same molecule?
A: interacts with the different MUC1-C monomeric and oligomeric forms

Q: And the “association with endogenous MUC1-C” value (endogenous MUC1-C [7]; H1975 lung cancer cells, anti-MUC1-C precipitates, anti-FITC immunoblot)?
A: associates with endogenous MUC1-C

Q: With His-MUC1-CD (dog) (domain or fragment) as the molecule, how does the stoichiometry N (His-MUC1-CD (dog) (dog)) read?
A: 2

Q: Which Kd (GST-MUC1-CD (human)) does the source give for {FITC}-RRRRRRRRRCQCRRKN (cysteine pairing not given here) [FITC-GO-202] here?
A: 880 nM

Q: With {FITC}-[dR][dR][dR][dR][dR][dR][dR][dR][dR][dC][dQ][dC][dR][dR][dK][dN] (cysteine pairing not given here) [FITC-GO-203] as the molecule, how does the Kd [8] read?
A: 860 nM

Q: What about the Kd (GST-MUC1-CD (human)) of the same molecule?
A: 630 nM

Source: paper PMC4534190, “Characterization of the MUC1-C Cytoplasmic Domain as a Cancer Target” (PLoS ONE, 2015)
